Reference: ChEMBL document CHEMBL1143768, “Microwave prompted multigram synthesis, structural determination, and photo-antiproliferative activity of fluorinated 4-hydroxyquinolinones” (Bioorg Med Chem Lett, 2007)
Values after ≈ are worked out from the molar mass of the structure shown.

Experiments:
[1] = system: Mycobacterium tuberculosis; test: Growth inhibition of Mycobacterium tuberculosis at 6.25 ug/ml; format: functional
[2] = Photocytotoxicity against human NTCC 2544 cell line irradiated with 2.5 J cm^-2 after 72 hrs by MTT assay; format: cell-based; conditions: NTCC 2544 cells
[3] = system: HL-60; test: Cell cycle arrest in HL60 cell line irradiated with 2.5 J cm^-2 assessed as accumulation at G2 phase at 5.0 […] after 24hrs; format: functional, Homo sapiens
[4] = system: HL-60; test: Cell cycle arrest in HL60 cell line irradiated with 2.5 J cm^-2 assessed as accumulation at G1 phase at 2.5 […] after 48 hrs; format: functional, Homo sapiens
[5] = system: HL-60; test: Cell cycle arrest in HL60 cell line irradiated with 2.5 J cm^-2 assessed as accumulation at S phase at 5.0 […] after 24hrs; format: functional, Homo sapiens
[6] = system: HL-60; test: Apoptotic activity in HL60 cells irradiated with 2.5 J cm^-2 at 2.5 […] after 24 hrs; format: functional, Homo sapiens
[7] = system: HL-60; test: Cell cycle arrest in HL60 cell line irradiated with 2.5 J cm^-2 assessed as accumulation at G2 phase at 2.5 […] after 48 hrs; format: functional, Homo sapiens
[8] = system: HL-60; test: Cell cycle arrest in HL60 cell line irradiated with 2.5 J cm^-2 assessed as accumulation at G1 phase at 5.0 […] after 24hrs; format: functional, Homo sapiens
[9] = system: HL-60; test: Cell cycle arrest in HL60 cell line irradiated with 2.5 J cm^-2 assessed as accumulation at G2 phase at 2.5 […] after 24 hrs; format: functional, Homo sapiens
[10] = system: HL-60; test: Cell cycle arrest in HL60 cell line irradiated with 2.5 J cm^-2 assessed as accumulation at G1 phase at 2.5 […] after 24 hrs; format: functional, Homo sapiens
[11] = system: HL-60; test: Photocytotoxicity against human HL60 cell line irradiated with 2.5 J cm^-2 after 72 hrs by MTT assay; format: functional; conditions: HL-60, light or radiation study
[12] = system: HL-60; test: Apoptotic activity in HL60 cells irradiated with 2.5 J cm^-2 at 5.0 […] after 48 hrs; format: functional, Homo sapiens
[13] = system: HL-60; test: Cell cycle arrest in HL60 cell line irradiated with 2.5 J cm^-2 assessed as accumulation at G1 phase at 5.0 […] after 72 hrs; format: functional, Homo sapiens
[14] = system: HL-60; test: Cell cycle arrest in HL60 cell line irradiated with 2.5 J cm^-2 assessed as accumulation at G1 phase at 5.0 […] after 48 hrs; format: functional, Homo sapiens
[15] = system: HL-60; test: Apoptotic activity in HL60 cells irradiated with 2.5 J cm^-2 at 5.0 […] after 24 hrs; format: functional, Homo sapiens
[16] = system: LoVo; test: Photocytotoxicity against human LoVo cell line irradiated with 2.5 J cm^-2 after 72 hrs by MTT assay; format: functional; conditions: light or radiation study
[17] = system: HL-60; test: Cell cycle arrest in HL60 cell line irradiated with 2.5 J cm^-2 assessed as accumulation at S phase at 5.0 […] after 72 hrs; format: functional, Homo sapiens
[18] = system: HL-60; test: Cell cycle arrest in HL60 cell line irradiated with 2.5 J cm^-2 assessed as accumulation at S phase at 2.5 […] after 48 hrs; format: functional, Homo sapiens
[19] = system: HL-60; test: Cell cycle arrest in HL60 cell line […] cm^-2 assessed as accumulation at G2 phase at 2.5 […] after 72 hrs; format: functional, Homo sapiens
[20] = system: HL-60; test: Cell cycle arrest in HL60 cell line irradiated with 2.5 J cm^-2 assessed as accumulation at G2 phase at 5.0 […] after 72 hrs; format: functional, Homo sapiens
[21] = system: HL-60; test: Apoptotic activity in HL60 cells irradiated with 2.5 J cm^-2 at 5.0 […] after 72 hrs; format: functional, Homo sapiens
[22] = system: HL-60; test: Cell cycle arrest in HL60 cell line irradiated with 2.5 J cm^-2 assessed as accumulation at G1 phase at 2.5 […] after 72 hrs; format: functional, Homo sapiens
[23] = system: HL-60; test: Cell cycle arrest in HL60 cell line irradiated with 2.5 J cm^-2 assessed as accumulation at S phase at 2.5 […] after 24 hrs; format: functional, Homo sapiens
[24] = system: HL-60; test: Apoptotic activity in HL60 cells irradiated with 2.5 J cm^-2 at 2.5 […] after 48 hrs; format: functional, Homo sapiens
[25] = system: HL-60; test: Photocytotoxicity against human HL60 cell line irradiated with 1.25 J cm^-2 after 72 hrs by MTT assay; format: functional; conditions: HL-60, light or radiation study
[26] = system: HL-60; test: Apoptotic activity in HL60 cells irradiated with 2.5 J cm^-2 at 2.5 […] after 72 hrs; format: functional, Homo sapiens
[27] = system: HL-60; test: Cell cycle arrest in HL60 cell line irradiated with 2.5 J cm^-2 assessed as accumulation at G2 phase at 5.0 […] after 48 hrs; format: functional, Homo sapiens
[28] = Photocytotoxicity against human NTCC 2544 cell line irradiated with 1.25 J cm^-2 after 72 hrs by MTT assay; format: cell-based; conditions: NTCC 2544 cells
[29] = system: HL-60; test: Cell cycle arrest in HL60 cell line irradiated with 2.5 J cm^-2 assessed as accumulation at S phase at 5.0 […] after 48 hrs; format: functional, Homo sapiens
[30] = system: HL-60; test: Cell cycle arrest in HL60 cell line irradiated with 2.5 J cm^-2 assessed as accumulation at S phase at 2.5 […] after 72 hrs; format: functional, Homo sapiens
[31] = system: Mycobacterium tuberculosis; test: Antimicrobial activity against Mycobacterium tuberculosis; format: functional
[32] = system: Trichophyton benhamiae; test: Antifungal activity against Trichophyton mentagrophytes 445(TM) by broth microdilution test; format: functional, Arthroderma benhamiae

O=c1cc(O)c2ccccc2[nH]1
inhibition at 6.25 µg/mL [1]: 0%

O=c1cc(O)c2cc(F)ccc2[nH]1
GI50 at 72 h [2]: > 20 µM
Activity [3]: 11.1%
Activity [4]: 44.7%
Activity [5]: 54.3%
inhibition at 6.25 µg/mL [1]: 35%
Activity [6]: 13.2%
Activity [7]: 10.3%
Activity [8]: 34.6%
Activity [9]: 10.8%
Activity [10]: 30.8%
GI50 [11]: 7.8 µM
Activity [12]: 26%
Activity [13]: 56%
Activity [14]: 49.6%
Activity [15]: 21%
GI50 [16]: 12.1 µM
Activity [17]: 37.1%
Activity [18]: 45%
Activity [19]: 12%
Activity [20]: 6.9%
Activity [21]: 46%
Activity [22]: 44.2%
Activity [23]: 58.4%
Activity [24]: 27%
GI50 [25]: > 10 µM
Activity [26]: 40.5%
Activity [27]: 11.7%
GI50 at 72 h [28]: > 20 µM
Activity [29]: 38.6%
Activity [30]: 43.8%

O=c1cc(O)c2cccc(C(F)(F)F)c2[nH]1
GI50 at 72 h [2]: 7.8 µM
inhibition at 6.25 µg/mL [1]: 69%
GI50 [11]: 7.3 µM
GI50 [16]: 10.1 µM
GI50 [25]: > 10 µM
GI50 at 72 h [28]: > 20 µM

O=c1cc(O)c2ccc(C(F)(F)F)cc2[nH]1
GI50 at 72 h [2]: 2.5 µM
inhibition at 6.25 µg/mL [1]: 72%
Inhibition [31]: 72%
GI50 [16]: 1.8 µM
GI50 [25]: 6.2 µM
GI50 at 72 h [28]: 7 µM

Cc1ccc2c(O)cc(=O)[nH]c2c1
inhibition at 6.25 µg/mL [1]: 54%
GI50 [11]: 10 µM
GI50 [25]: > 10 µM

O=c1cc(O)c2cccc(F)c2[nH]1
inhibition at 6.25 µg/mL [1]: 50%
GI50 [11]: 10 µM
GI50 [25]: > 10 µM

O=c1cc(O)c2ccc(F)cc2[nH]1
inhibition at 6.25 µg/mL [1]: 52%
GI50 [11]: 10 µM
GI50 [25]: > 10 µM

O=c1cc(O)c2ccc(Cl)cc2[nH]1
inhibition at 6.25 µg/mL [1]: 2%

OC(Cn1cncn1)(Cn1cncn1)c1ccc(F)cc1F [FLUCONAZOLE]
MIC [32]: 1950 µM (≈ 597 µg/mL)

NC(=O)c1cnccn1 [PYRAZINAMIDE]
inhibition at 6.25 µg/mL [1]: 100%
